Results: PubChem BioAssay AID2060500 (Molecular Pharmacology Branch, DTP, NCI, 2025)

System: 596521-263-R-J1-PDC complex spheroids, viability % of control
Test: Anticancer human tumor 596521-263-R-J1-PDC patient-derived soft tissue sarcoma cell line growth inhibition [GQUAD]
Settings: for IC50: curve of first compound; for viability, T/C: stronger effect = lower value
Summary of the method: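 Tumor cells were grown as complex spheroids with HUVEC endothelial cells and mesenchymal stem cells as stroma. G-quadruplex stabilizers were combined with targeted agents over half-log dilutions from near the clinical Cmax, or from 10 microM.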

[1] = second compound 0.0316 µM, first compound 0.0316 µM
[2] = second compound 0.0316 µM, first compound 0.1 µM
[3] = second compound 0.0316 µM, first compound 0.316 µM
[4] = second compound 0.0316 µM, first compound 1 µM
[5] = second compound 0.0316 µM, first compound 3.16 µM
[6] = second compound 0.0316 µM, first compound 10 µM
[7] = second compound 0.1 µM, first compound 0.0316 µM
[8] = second compound 0.1 µM, first compound 0.1 µM
[9] = second compound 0.1 µM, first compound 0.316 µM
[10] = second compound 0.1 µM, first compound 1 µM
[11] = second compound 0.1 µM, first compound 3.16 µM
[12] = second compound 0.1 µM, first compound 10 µM
[13] = second compound 0.316 µM, first compound 0.0316 µM
[14] = second compound 0.316 µM, first compound 0.1 µM
[15] = second compound 0.316 µM, first compound 0.316 µM
[16] = second compound 0.316 µM, first compound 1 µM
[17] = second compound 0.316 µM, first compound 3.16 µM
[18] = second compound 0.316 µM, first compound 10 µM
[19] = second compound 1 µM, first compound 0.0316 µM
[20] = second compound 1 µM, first compound 0.1 µM
[21] = second compound 1 µM, first compound 0.316 µM
[22] = second compound 1 µM, first compound 1 µM
[23] = second compound 1 µM, first compound 3.16 µM
[24] = second compound 1 µM, first compound 10 µM
[25] = second compound 3.16 µM, first compound 0.0316 µM
[26] = second compound 3.16 µM, first compound 0.1 µM
[27] = second compound 3.16 µM, first compound 0.316 µM
[28] = second compound 3.16 µM, first compound 1 µM
[29] = second compound 3.16 µM, first compound 3.16 µM
[30] = second compound 3.16 µM, first compound 10 µM
[31] = second compound 10 µM, first compound 0.0316 µM
[32] = second compound 10 µM, first compound 0.1 µM
[33] = second compound 10 µM, first compound 0.316 µM
[34] = second compound 10 µM, first compound 1 µM
[35] = second compound 10 µM, first compound 3.16 µM
[36] = second compound 10 µM, first compound 10 µM
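Further: spheroids exposed to drugs for 7 days before viability reading.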
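Wherever viability, T/C is given: 100% = DMSO vehicle control viability.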

With `C=CCn1c(=O)c2cnc(Nc3ccc(N4CCN(C)CC4)cc3)nc2n1-c1cccc(C(C)(C)O)n1` + Cc1[nH]c2ccc(F)cc2c1-c1nc2c3cccnc3c3ncccc3c2[nH]1 the IC50 (second compound 0.0316 µM) was 5.81 µM, the IC50 (second compound 0.1 µM) was 5.31 µM and the IC50 (second compound 0.316 µM) was 5.46 µM. The IC50 (second compound 1 µM) was 5.29 µM, the IC50 (second compound 3.16 µM) was 5.68 µM and the IC50 (second compound 10 µM) was 5.57 µM. The viability, T/C [1] was 99.1%, the viability, T/C [2] was 97.8% and the viability, T/C [3] was 92.5%. It also gave a viability, T/C [4] of 88%, a viability, T/C [5] of 69.9% and a viability, T/C [6] of 32%. For the same compound, the viability, T/C [7] was 120%, the viability, T/C [8] was 91.6% and the viability, T/C [9] was 92.5%. It also gave a viability, T/C [10] of 94.7%, a viability, T/C [11] of 64.8% and a viability, T/C [12] of 30%. It also gave a viability, T/C [13] of 110%, a viability, T/C [14] of 88.3% and a viability, T/C [15] of 81.7%. The viability, T/C [16] was 84.5%, the viability, T/C [17] was 70.3% and the viability, T/C [18] was 31.2%. The viability, T/C [19] was 102%, the viability, T/C [20] was 88.8% and the viability, T/C [21] was 86.7%. For the same compound, the viability, T/C [22] was 90.2%, the viability, T/C [23] was 64.3% and the viability, T/C [24] was 31.3%. For the same compound, the viability, T/C [25] was 83.7%, the viability, T/C [26] was 85% and the viability, T/C [27] was 92.1%. It also gave a viability, T/C [28] of 86.2%, a viability, T/C [29] of 66.8% and a viability, T/C [30] of 33.7%. For the same compound, the viability, T/C [31] was 90.3%, the viability, T/C [32] was 82.2% and the viability, T/C [33] was 84.5%. It also gave a viability, T/C [34] of 79.2%, a viability, T/C [35] of 69.4% and a viability, T/C [36] of 31.2%.
In the case of `CC(C)(O)C1CCC(Nc2ccc3ncc(-c4cccc(C(F)(F)F)c4)n3n2)CC1` (centres undefined) + Cc1[nH]c2ccc(F)cc2c1-c1nc2c3cccnc3c3ncccc3c2[nH]1, the IC50 (second compound 0.0316 µM) is reported as greater than 10 µM, the IC50 (second compound 0.1 µM) is reported as greater than 10 µM and the IC50 (second compound 0.316 µM) is reported as greater than 10 µM. It also gave an IC50 (second compound 1 µM) greater than 10 µM, an IC50 (second compound 3.16 µM) greater than 10 µM and an IC50 (second compound 10 µM) greater than 10 µM. For the same compound, the viability, T/C [1] was 98.3%, the viability, T/C [2] was 96.8% and the viability, T/C [3] was 97.9%. The viability, T/C [4] was 101%, the viability, T/C [5] was 102% and the viability, T/C [6] was 87.2%. It also gave a viability, T/C [7] of 120%, a viability, T/C [8] of 92.5% and a viability, T/C [9] of 92.3%. It also gave a viability, T/C [10] of 100%, a viability, T/C [11] of 96.4% and a viability, T/C [12] of 81.7%. For the same compound, the viability, T/C [13] was 98.5%, the viability, T/C [14] was 90.6% and the viability, T/C [15] was 103%. For the same compound, the viability, T/C [16] was 92.3%, the viability, T/C [17] was 103% and the viability, T/C [18] was 82.9%. For the same compound, the viability, T/C [19] was 90.7%, the viability, T/C [20] was 88.5% and the viability, T/C [21] was 98.5%. For the same compound, the viability, T/C [22] was 101%, the viability, T/C [23] was 106% and the viability, T/C [24] was 79.5%. For the same compound, the viability, T/C [25] was 89.3%, the viability, T/C [26] was 96.5% and the viability, T/C [27] was 94.1%. For the same compound, the viability, T/C [28] was 83.2%, the viability, T/C [29] was 95.2% and the viability, T/C [30] was 80.6%. For the same compound, the viability, T/C [31] was 77.7%, the viability, T/C [32] was 92% and the viability, T/C [33] was 91%. It also gave a viability, T/C [34] of 86.4%, a viability, T/C [35] of 84.9% and a viability, T/C [36] of 68.6%.
